The compounds below were run on beta-TC6 cells (assay: Insulin HTRF assay (relative activity Ar) in beta-TC6 cells). Conditions: Mus musculus, Beta-TC6, 4 h, insulin HTRF, supernatant of beta-TC6 cells, incubation with test compound at 37°C for 2, 3, 4h; read-out: Ar (relative activity).
Type: cell-based, mouse
Summary of the method: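 beta-TC6 cells (15k/well, seeded 24 or 48 h) washed, then exposed to compound in induction buffer (0.5% DMSO final) for 2, 3 or 4 h at 37°C.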

First: Fc1ccc(Nc2cc3[nH]c(-c4cn[nH]c4)cc3cn2)cc1 [Compound 114, N-(4-fluorophenyl)-2-(1H-pyrazol-4-yl)-1H-pyrrolo[3,2-c]pyridin-6-amine]
Second: CC(=O)c1cccc(Nc2cc3[nH]c(-c4cn[nH]c4)cc3cn2)c1 [Compound 118, 1-[3-[[2-(1 H-pyrazol-4-yl)-1H-pyrrolo[3,2-c]pyridin-6-yl]amino]phenyl]ethanone]
The Emax of the first is lower: 50 to 100% for the first, > 100% for the second.

Compared with `CC(=O)N(C)c1cccc(-c2cc3cnc(Nc4cccc(O)c4)cc3n2C)c1` [Compound 170, N-[3-[6-(3-hydroxyanilino)-1-methyl-pyrrolo[3,2-c]pyridin-2-yl]phenyl]-N-methyl-acetamide], `COc1cccc(Nc2cc3c(cn2)cc(-c2ccc(C(=O)N(C)C)cc2)n3C)c1` [Compound 45, 4-[6-(3-methoxyanilino)-1-methyl-pyrrolo[3,2-c]pyridin-2-yl]-N,N-dimethyl-benzamide] is lower in Emax: 50 to 100% for the first, 30 to 50% for the second.

Compared with `COc1ccc(-c2cc3c(cn2)nc(NCc2cccnc2)n3C)cc1OC` [Compound 862, 6-(3,4-dimethoxyphenyl)-1-methyl-N-(3-pyridylmethyl)imidazo[4,5-c]pyridin-2-amine], `COc1ccc(CNc2nc3cnc(Nc4ccc(F)cc4)cc3n2C)cc1OC` [Compound 607, N2-[(3,4-dimethoxyphenyl)methyl]-N6-(4-fluorophenyl)-1-methyl-imidazo[4,5-c]pyridine-2,6-diamine] is higher in Emax: 0 to 30% for the first, 50 to 100% for the second.

Compared with `COc1cccc(-c2nc3c(Nc4cc(OC)c(OC)c(OC)c4)nccc3[nH]2)c1F` [Compound 467, 2-(2-fluoro-3-methoxy-phenyl)-N-(3,4,5-trimethoxyphenyl)-1H-imidazo[4,5-c]pyridin-4-amine], `COc1cccc(-c2nc3c(Nc4ccccc4)nccc3[nH]2)c1F` [Compound 472, 2-(2-fluoro-3-methoxy-phenyl)-N-phenyl-1H-imidazo[4,5-c]pyridin-4-amine] is lower in Emax: > 100% for the first, 50 to 100% for the second.

First: COc1ccc(Nc2cc3c(cn2)cc(-c2cccnc2)n3C)cn1 [Compound 86, N-(6-methoxy-3-pyridyl)-1-methyl-2-(3-pyridyl)pyrrolo[3,2-c]pyridin-6-amine]
Second: Cc1cccc(Nc2cc3c(cn2)cc(-c2cccnc2)n3C)c1 [Compound 90, 1-methyl-N-(m-tolyl)-2-(3-pyridyl)pyrrolo[3,2-c]pyridin-6-amine]
The Emax of the first is higher: 50 to 100% for the first, 30 to 50% for the second.

Compared with `Cn1c(-c2ccsc2)cc2c(Nc3ccc4c(c3)OCO4)nccc21` [Compound 283, N-(1,3-benzodioxol-5-yl)-1-methyl-2-(3-thienyl)pyrrolo[3,2-c]pyridin-4-amine], `c1cc2[nH]c(-c3ccsc3)cc2c(Nc2ccc3c(c2)OCO3)n1` [Compound 263, N-(1,3-benzodioxol-5-yl)-2-(3-thienyl)-1H-pyrrolo[3,2-c]pyridin-4-amine] is higher in Emax: 30 to 50% for the first, 50 to 100% for the second.

First: CN(C)C(=O)c1ccc(Nc2cc3c(cn2)nc(-c2ccco2)n3C)cc1 [Compound 711, 4-[[2-(2-furyl)-1-methyl-imidazo[4,5-c]pyridin-6-yl]amino]-N,N-dimethyl-benzamide]
Second: CN(C)C(=O)c1ccc(-c2cc3cnc(Nc4ccccn4)cc3n2C)cc1 [Compound 51, N,N-dimethyl-4-[1-methyl-6-(2-pyridylamino)pyrrolo[3,2-c]pyridin-2-yl]benzamide]
The Emax of the first is higher: 50 to 100% for the first, 30 to 50% for the second.

Compared with `CNc1nc2cnc(-c3cccc(NS(C)(=O)=O)c3)cc2n1-c1cccc(F)c1` [Compound 768, N-[3-[1-(3-fluorophenyl)-2-(methylamino)imidazo[4,5-c]pyridin-6-yl]phenyl]methanesulfonamide], `CNc1nc2cnc(Nc3cccc(NC(C)=O)c3)cc2n1-c1ccccc1` [Compound 516, N-[3-[[2-(methylamino)-1-phenyl-imidazo[4,5-c]pyridin-6-yl]amino]phenyl]acetamide] is higher in Emax: 0 to 30% for the first, 50 to 100% for the second.

`Cn1c(NCc2ccccc2)nc2cnc(Nc3cccc(O)c3)cc21` [Compound 622, 3-[[2-(benzylamino)-1-methyl-imidazo[4,5-c]pyridin-6-yl]amino]phenol] and `COc1ccc(Nc2cc3c(cn2)nc(NCc2ccccc2)n3C)cn1` [Compound 618, N2-benzyl-N6-(6-methoxy-3-pyridyl)-1-methyl-imidazo[4,5-c]pyridine-2,6-diamine] fall in the same range of Emax: 50 to 100% for the first, 50 to 100% for the second.

`COc1ccc(OC)c(CCNc2nc3cnc(-c4cc(OC)c(OC)c(OC)c4)cc3n2C)c1` [Compound 593, N-[2-(2,5-dimethoxyphenyl)ethyl]-1-methyl-6-(3,4,5-trimethoxyphenyl)imidazo[4,5-c]pyridin-2-amine] and `COc1cc(Nc2cc3c(cn2)nc(Cc2cccnc2)n3C)cc(OC)c1OC` [Compound 729, 1-methyl-2-(3-pyridylmethyl)-N-(3,4,5-trimethoxyphenyl)imidazo[4,5-c]pyridin-6-amine] fall in the same range of Emax: 30 to 50% for the first, 30 to 50% for the second.

`CN(C)c1cccc(Nc2nccc3c2ncn3C)c1` [Compound 450, N1,N1-dimethyl-N3-(1-methylimidazo[4,5-c]pyridin-4-yl)benzene-1,3-diamine] and `COc1ccc(Nc2nccc3c2cc(-c2ccsc2)n3C)cc1OC` [Compound 274, N-(3,4-dimethoxyphenyl)-1-methyl-2-(3-thienyl)pyrrolo[3,2-c]pyridin-4-amine] fall in the same range of Emax: 30 to 50% for the first, 30 to 50% for the second.

First: Fc1cccc(-c2cc3c(cn2)ncn3-c2ccccc2)c1 [Compound 733, 6-(3-fluorophenyl)-1-phenyl-imidazo[4,5-c]pyridine]
Second: Cn1c(NCc2ccccc2)nc2cnc(-c3ccc(N)nc3)cc21 [Compound 625, 6-(6-amino-3-pyridyl)-N-benzyl-1-methyl-imidazo[4,5-c]pyridin-2-amine]
The Emax of the first is lower: 30 to 50% for the first, > 100% for the second.

`CC(=O)Nc1ccc(Nc2cc3c(cn2)cc(-c2cnn(C)c2)n3C)cc1` [Compound 126, N-[4-[[1-methyl-2-(1-methylpyrazol-4-yl)pyrrolo[3,2-c]pyridin-6-yl]amino]phenyl]acetamide] and `Cn1cc(-c2cc3cnc(Nc4ccncc4)cc3n2C)cn1` [Compound 135, 1-methyl-2-(1-methylpyrazol-4-yl)-N-(4-pyridyl)pyrrolo[3,2-c]pyridin-6-amine] fall in the same range of Emax: 50 to 100% for the first, 50 to 100% for the second.

First: CNc1nc2cnc(Nc3cccc(C)c3)cc2n1Cc1cccnc1 [Compound 564, N2-methyl-N6-(m-tolyl)-1-(3-pyridylmethyl)imidazo[4,5-c]pyridine-2,6-diamine]
Second: CNc1nc2cnc(Nc3cccc(C(F)(F)F)c3)cc2n1Cc1cccnc1 [Compound 765, N2-methyl-1-(3-pyridylmethyl)-N6-[3-(trifluoromethyl)phenyl]imidazo[4,5-c]pyridine-2,6-diamine]
The Emax of the first is higher: 50 to 100% for the first, 0 to 30% for the second.

First: Cn1c(-c2cccnc2)cc2cnc(Nc3ccc4c(c3)OCCO4)cc21 [Compound 84, N-(2,3-dihydro-1,4-benzodioxin-6-yl)-1-methyl-2-(3-pyridyl)pyrrolo[3,2-c]pyridin-6-amine]
Second: CNc1nc2cnc(-c3ccc4c(c3)OCO4)cc2n1Cc1ccccc1 [Compound 791, 6-(1,3-benzodioxol-5-yl)-1-benzyl-N-methyl-imidazo[4,5-c]pyridin-2-amine]
The Emax of the first is higher: 50 to 100% for the first, 0 to 30% for the second.

Compared with `CNc1nc2cnc(-c3ccoc3)cc2n1Cc1ccccc1` [Compound 798, 1-benzyl-6-(3-furyl)-N-methyl-imidazo[4,5-c]pyridin-2-amine], `CNc1nc2cnc(-c3ccc4ccccc4c3)cc2n1Cc1ccc(OC)c(OC)c1` [Compound 668, 1-[(3,4-dimethoxyphenyl)methyl]-N-methyl-6-(2-naphthyl)imidazo[4,5-c]pyridin-2-amine] is higher in Emax: 30 to 50% for the first, 50 to 100% for the second.

First: Cc1cccc(CNc2nc3cnc(-c4ccc(N(C)C)cc4)cc3n2C)c1 [Compound 802, 6-(4-dimethylaminophenyl)-1-methyl-N-(m-tolylmethyl)imidazo[4,5-c]pyridin-2-amine]
Second: CN(C)C(=O)c1ccc(-c2cc3cnc(Nc4ccc(Oc5ccccc5)cc4)cc3[nH]2)cc1 [Compound 25, N,N-dimethyl-4-[6-(4-phenoxyanilino)-1H-pyrrolo[3,2-c]pyridin-2-yl]benzamide]
The Emax of the first is higher: 50 to 100% for the first, 0 to 30% for the second.

`c1ccc(-c2nc3c(NCCc4ccccn4)nccc3[nH]2)cc1` [Compound 332, 2-phenyl-N-[2-(2-pyridyl)ethyl]-1H-imidazo[4,5-c]pyridin-4-amine] and `COc1ccc(-c2nc3c(NCC4CC4)nccc3[nH]2)cc1` [Compound 400, N-(cyclopropylmethyl)-2-(4-methoxyphenyl)-1H-imidazo[4,5-c]pyridin-4-amine] fall in the same range of Emax: 30 to 50% for the first, 30 to 50% for the second.

First: CC(=O)Nc1ccc(Nc2nccc3[nH]c(-c4cccnc4)cc23)cc1 [Compound 231, N-[4-[[2-(3-pyridyl)-1H-pyrrolo[3,2-c]pyridin-4-yl]amino]phenyl]acetamide]
Second: COC(=O)c1ccc(Nc2nccc3[nH]c(-c4ccsc4)cc23)cc1 [Compound 261, methyl 4-[[2-(3-thienyl)-1H-pyrrolo[3,2-c]pyridin-4-yl]amino]benzoate]
The Emax of the first is higher: > 100% for the first, 0 to 30% for the second.

First: FC(F)(F)c1cccc(Nc2nccc3[nH]c(-c4ccccc4Cl)nc23)c1 [Compound 462, 2-(2-chlorophenyl)-N-[3-(trifluoromethyl)phenyl]-1H-imidazo[4,5-c]pyridin-4-amine]
Second: COc1ccc(Nc2nccc3[nH]c(-c4cccc(F)c4)cc23)cc1O [Compound 204, 5-[[2-(3-fluorophenyl)-1H-pyrrolo[3,2-c]pyridin-4-yl]amino]-2-methoxy-phenol]
The Emax of the first is lower: 0 to 30% for the first, 50 to 100% for the second.

First: COc1cccc(-c2nc3c(NC4CCC(N)CC4)nccc3[nH]2)c1F (stereo not shown) [Compound 476, N4-[2-(2-fluoro-3-methoxy-phenyl)-1H-imidazo[4,5-c]pyridin-4-yl]cyclohexane-1,4-diamine]
Second: CNc1nc2cnc(Nc3ccc(OC)c(OC)c3)cc2n1CCN1CCOCC1 [Compound 555, N6-(3,4-dimethoxyphenyl)-N2-methyl-1-(2-morpholinoethyl)imidazo[4,5-c]pyridine-2,6-diamine]
The Emax of the first is lower: 0 to 30% for the first, 30 to 50% for the second.

With `CNc1nc2cnc(Nc3cc(OC)cc(C(F)(F)F)c3)cc2n1Cc1ccco1` [Compound 767, 1-(2-furylmethyl)-N6-[3-methoxy-5-(trifluoromethyl)phenyl]-N2-methyl-imidazo[4,5-c]pyridine-2,6-diamine] the Emax was 0 to 30%.

Reference: EP2818472A1, “Imidazo[4,5-c]pyridine and pyrrolo[3,2-c]pyridine compounds as G-protein-coupled receptor kinase 5 (GRK5) modulators” (Max-Planck-Gesellschaft zur Förderung der Wissenschaften …, priority 2013, dated 2014)
